Columns and labels:
human P2X4 = biological target: T1, human P2X4 (Homo sapiens, UniProt Q99571); assay: Human P2X4 HEK Cell FLIPR Assay; type: cell-based; settings: HEK293 stably expressing human P2X4, agonist Bz-ATP 3 μM (EC80); for IC50: read-out: Human P2X4 HEK Cells (FLIPR Assay) avg IC50
T1 construct: expressed in transfected cells
T1 sequence (Q99571 1-388): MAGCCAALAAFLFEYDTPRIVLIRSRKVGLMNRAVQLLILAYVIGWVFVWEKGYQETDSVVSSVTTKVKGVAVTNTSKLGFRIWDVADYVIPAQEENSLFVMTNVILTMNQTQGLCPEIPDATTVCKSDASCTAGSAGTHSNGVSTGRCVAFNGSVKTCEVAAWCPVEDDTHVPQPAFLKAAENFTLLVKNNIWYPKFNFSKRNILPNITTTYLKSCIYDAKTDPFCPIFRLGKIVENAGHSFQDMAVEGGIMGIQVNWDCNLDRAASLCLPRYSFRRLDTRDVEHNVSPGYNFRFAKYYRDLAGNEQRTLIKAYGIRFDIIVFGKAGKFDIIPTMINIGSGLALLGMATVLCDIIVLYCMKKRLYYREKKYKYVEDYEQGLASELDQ
Procedure, shortened: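 Compounds were preincubated 30 min at room temperature on Fluo8-AM-loaded HEK293 cells stably expressing human P2X4. The response was the calcium fluorescence rise on Bz-ATP addition.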

rat P2X4 = biological target: T2, rat P2X4 (Rattus norvegicus, UniProt P51577); assay: FLIPR Method for Rat P2X4 1321N1 Astrocytoma Cells; type: cell-based; settings: 1321N1 stably expressing rat P2X4; agonist MgATP 5 μM (EC80)
T2 construct: expressed in transfected cells
T2 sequence (P51577 1-388): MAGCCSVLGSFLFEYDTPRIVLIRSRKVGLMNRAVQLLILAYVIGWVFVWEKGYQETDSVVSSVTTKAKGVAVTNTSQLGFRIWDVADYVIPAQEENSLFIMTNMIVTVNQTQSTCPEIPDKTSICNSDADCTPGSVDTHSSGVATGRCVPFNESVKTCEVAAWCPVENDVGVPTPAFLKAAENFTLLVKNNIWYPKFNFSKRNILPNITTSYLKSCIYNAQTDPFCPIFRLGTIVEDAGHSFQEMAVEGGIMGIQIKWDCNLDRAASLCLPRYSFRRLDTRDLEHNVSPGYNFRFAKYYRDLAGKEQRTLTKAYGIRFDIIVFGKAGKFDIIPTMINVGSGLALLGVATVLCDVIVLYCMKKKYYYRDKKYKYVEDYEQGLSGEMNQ
Procedure, shortened: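 1321N1 cells stably expressing rat P2X4, Fluo8-AM loaded; compounds (25 μM to 1 nM final, ten concentrations) preincubated 30 min at room temperature, then MgATP added at 5 μM (EC80). Calcium fluorescence read on FLIPR before and after agonist; triplicate data normalized to agonist control, four-parameter fit gives IC50.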

Row | SMILES | Human P2X4 HEK Cells (FLIPR Assay) avg Efficacy (human P2X4) | IC50 (human P2X4) | IC50 (rat P2X4) | Rat P2X4 1321N1 Astrocytoma Cells (FLIPR Assay) avg Efficacy (rat P2X4)
1 | CC(=O)N(c1ccc(F)c(F)c1)c1cc(NC(=O)Cc2ccc([N+](=O)[O-])cc2Cl)ccn1 [Example 69, N-{4-[2-(2-chloro-4-nitrophenyl)acetamido]pyridin-2-yl}-N-(3,4-difluorophenyl)acetamide] | 94% | 0.816 µM | 0.228 µM | 100%
2 | CC(=O)N(c1ccc(F)c(F)c1)c1cc(NC(=O)Cc2cccc(F)c2Cl)ccn1 [Example 71, N-{4-[2-(2-chloro-3-fluorophenyl)acetamido]pyridin-2-yl}-N-(3,4-difluorophenyl)acetamide] | 96% | 0.222 µM | 0.165 µM | 90%
3 | CC(=O)N(c1ccc(F)c(F)c1)c1cc(NC(=O)Cc2c(Cl)cc(C)cc2Cl)ccn1 [Example 74, N-{4-[2-(2,6-dichloro-4-methylphenyl)acetamido]pyridin-2-yl}-N-(3,4-difluorophenyl)acetamide] | 89% | 0.585 µM | 0.0991 µM | 97%
4 | COc1ccc(N(C(C)=O)c2cc(NC(=O)Cc3cccc(F)c3Cl)ccn2)cc1F [Example 79, N-{4-[2-(2-chloro-3-fluorophenyl)acetamido]pyridin-2-yl}-N-(3-fluoro-4-methoxyphenyl)acetamide] | 97% | 0.399 µM | 1.11 µM | 96%
5 | COc1ccc(N(C(C)=O)c2cc(NC(=O)Cc3c(Cl)cccc3Cl)ccn2)cc1F [Example 80, N-{4-[2-(2,6-dichlorophenyl)acetamido]pyridin-2-yl}-N-(3-fluoro-4-methoxyphenyl)acetamide] | 99% | 0.451 µM | 0.338 µM | 97%
6 | CC(=O)N(c1cc(F)cc(F)c1)c1cc(NC(=O)Cc2cccc(C)c2C)ccn1 [Example 83, N-(3,5-difluorophenyl)-N-{4-[2-(2,3-dimethylphenyl)acetamido]pyridin-2-yl}acetamide] | 97% | 0.35 µM | 0.143 µM | 90%
7 | CC(=O)N(c1cc(F)cc(F)c1)c1cc(NC(=O)Cc2ccccc2C(F)(F)F)ccn1 [Example 84, N-(3,5-difluorophenyl)-N-(4-{2-[2-(trifluoromethyl)phenyl]acetamido}pyridin-2-yl)acetamide] | 100% | 0.314 µM | 1.03 µM | 100%
8 | CC(=O)N(c1cc(F)cc(F)c1)c1cc(NC(=O)Cc2ccccc2Cl)ccn1 [Example 86, N-{4-[2-(2-chlorophenyl)acetamido]pyridin-2-yl}-N-(3,5-difluorophenyl)acetamide] | 98% | 0.196 µM | 0.393 µM | 98%
9 | CC(=O)N(c1cc(F)cc(F)c1)c1cc(NC(=O)Cc2cccc(F)c2Cl)ccn1 [Example 88, N-{4-[2-(2-chloro-3-fluorophenyl)acetamido]pyridin-2-yl}-N-(3,5-difluorophenyl)acetamide] | 97% | 0.198 µM | 0.451 µM | 100%
10 | CC(=O)N(c1cc(F)cc(F)c1)c1cc(NC(=O)Cc2c(Cl)cccc2Cl)ccn1 [Example 89, N-{4-[2-(2,6-dichlorophenyl)acetamido]pyridin-2-yl}-N-(3,5-difluorophenyl)acetamide] | 99% | 0.169 µM | 0.103 µM | 98%
11 | COc1cccc(N(C(C)=O)c2cc(NC(=O)Cc3ccccc3Cl)ccn2)c1 [Example 100, N-{4-[2-(2-chlorophenyl)acetamido]pyridin-2-yl}-N-(3-methoxyphenyl)acetamide] | 98% | 0.408 µM | 0.965 µM | 98%

Continued by falling IC50 (human P2X4), values first:

Row | Human P2X4 HEK Cells (FLIPR Assay) avg Efficacy (human P2X4) | IC50 (human P2X4) | IC50 (rat P2X4) | Rat P2X4 1321N1 Astrocytoma Cells (FLIPR Assay) avg Efficacy (rat P2X4) | SMILES
12 | 88% | 0.714 µM | 0.714 µM | 100% | COc1ccc(CC(=O)Nc2ccnc(N(C(C)=O)c3ccc(F)c(F)c3)c2)c(Cl)c1 [Example 70, N-{4-[2-(2-chloro-4-methoxyphenyl)acetamido]pyridin-2-yl}-N-(3,4-difluorophenyl)acetamide]
13 | 97% | 0.428 µM | 0.0671 µM | 93% | CC(=O)N(c1ccc(F)c(F)c1)c1cc(NC(=O)Cc2c(Cl)cc(F)cc2Cl)ccn1 [Example 73, N-{4-[2-(2,6-dichloro-4-fluorophenyl)acetamido]pyridin-2-yl}-N-(3,4-difluorophenyl)acetamide]
14 | 97% | 0.406 µM | 0.971 µM | 100% | COc1cccc(N(C(C)=O)c2cc(NC(=O)Cc3cccc(F)c3Cl)ccn2)c1 [Example 101, N-{4-[2-(2-chloro-3-fluorophenyl)acetamido]pyridin-2-yl}-N-(3-methoxyphenyl)acetamide]
15 | 97% | 0.397 µM | 0.667 µM | 99% | CC(=O)N(c1ccc(F)c(F)c1)c1cc(NC(=O)Cc2ccccc2OC(F)(F)F)ccn1 [Example 76, N-(3,4-difluorophenyl)-N-(4-{2-[2-(trifluoromethoxy)phenyl]acetamido}pyridin-2-yl)acetamide]
16 | 97% | 0.355 µM | 0.0585 µM | 89% | CC(=O)N(c1ccc(F)c(F)c1)c1cc(NC(=O)Cc2c(Cl)cccc2Cl)ccn1 [Example 72, N-{4-[2-(2,6-dichlorophenyl)acetamido]pyridin-2-yl}-N-(3,4-difluorophenyl)acetamide]
17 | 94% | 0.354 µM | 0.993 µM | 84% | COc1ccc(N(C(C)=O)c2cc(NC(=O)Cc3ccccc3Cl)ccn2)cc1F [Example 77, N-{4-[2-(2-chlorophenyl)acetamido]pyridin-2-yl}-N-(3-fluoro-4-methoxyphenyl)acetamide]
18 | 98% | 0.345 µM | 1.63 µM | 100% | CC(=O)N(c1cc(F)cc(F)c1)c1cc(NC(=O)Cc2ccccc2OC(F)(F)F)ccn1 [Example 91, N-(3,5-difluorophenyl)-N-(4-{2-[2-(trifluoromethoxy)phenyl]acetamido}pyridin-2-yl)acetamide]
19 | 98% | 0.313 µM | 0.983 µM | 94% | CC(=O)N(c1cc(F)cc(F)c1)c1cc(NC(=O)Cc2ccc(F)cc2Cl)ccn1 [Example 87, N-{4-[2-(2-chloro-4-fluorophenyl)acetamido]pyridin-2-yl}-N-(3,5-difluorophenyl)acetamide]
20 | 98% | 0.272 µM | 0.11 µM | 97% | CC(=O)N(c1cc(F)cc(F)c1)c1cc(NC(=O)Cc2c(Cl)cc(F)cc2Cl)ccn1 [Example 90, N-{4-[2-(2,6-dichloro-4-fluorophenyl)acetamido]pyridin-2-yl}-N-(3,5-difluorophenyl)acetamide]
21 | 98% | 0.251 µM | 0.229 µM | 97% | CC(=O)N(c1cc(F)cc(F)c1)c1cc(NC(=O)Cc2c(C)cccc2C)ccn1 [Example 85, N-(3,5-difluorophenyl)-N-{4-[2-(2,6-dimethylphenyl)acetamido]pyridin-2-yl}acetamide]

Reference: patent US20230257351A1, “SUBSTITUTED N-[…] HAVING P2X4 RECEPTOR ANTAGONISTIC ACTIVITY” (Bayer Aktiengesellschaft, priority 2020, published 2023)
